Key:
hERG K+ channel = target: T1, hERG K+ channel (Homo sapiens, UniProt Q12809); experiment: hERG channel inhibition assay (patch-clamp, CHOhERG cells); assay type: cell-based; settings: for IC50 / IC20: CHOhERG cells, whole-cell patch-clamp; for IC20: human, CHO cells stably expressing hERG (CHOhERG); for hERG IC20/TLR7 IC50 / hERG IC20/TLR8 IC50 / hERG IC20/TLR9 IC50: safety ratio
T1 construct: expressed in transfected cells; host or cells: CHO (Chinese hamster ovary), CHOhERG
Protocol: The hERG K^+ channels were cloned in humans and stably expressed in a CHO (Chinese hamster ovary) cell line. CHOhERG cells were used for patch-clamp (voltage-clamp, whole-cell) experiments. Cells were stimulated by a voltage pattern to activate hERG channels and conduct IKhERG currents (rapid delayed outward rectifier potassium current of the hERG channel). After the cells were stabilized for a few minutes, the amplitude and kinetics of IKhERG were recorded at a stimulation frequency of 0.1 Hz, (6 bpm). Thereafter, the test compound was added to the preparation at increasing concentrations. For each concentration, an attempt was made to reach a steady-state effect, usually, this was achieved within 3-10 min at which time the next highest concentration was applied. The amplitude and kinetics of IKhERG are recorded in each concentration of the drug which were compared to the control values (taken as 100%). (references: Redfern W S, Carlsson L, Davis A S, Lynch W G, MacKenzie I, Palethorpe S, Siegl P K, Strang I, Sullivan A T, Wallis R, Camm A J, Hammond T G. 2003; Relationships between preclinical cardiac electrophysiology, clinical QT interval prolongation and torsade de pointes for a broad range of drugs: evidence for a provisional safety margin in drug development. Cardiovasc. Res. 58:32-45, Sanguinetti MC, Tristani-Firouzi M. 2006; hERG potassium channels and cardiac arrhythmia. Nature 440:463-469, Webster R, Leishman D, Walker D. 2002; Towards a drug concentration effect relationship for QT prolongation and torsades de pointes. Curr. Opin. Drug Discov. Devel. 5:116-26).

human TLR8 = target: T2, human TLR8 (Homo sapiens, UniProt Q9NR97); experiment: HEK293-Blue-hTLR-8 cells assay; assay type: cell-based; settings: HEK293-Blue-hTLR8 cells, R848 stimulation, 20 hrs, SEAP reporter; read-out: HEK/hTLR8 IC50
T2 construct: host or cells: HEK293 (HEK-Blue hTLR8)
T2 sequence (Q9NR97 27-1041): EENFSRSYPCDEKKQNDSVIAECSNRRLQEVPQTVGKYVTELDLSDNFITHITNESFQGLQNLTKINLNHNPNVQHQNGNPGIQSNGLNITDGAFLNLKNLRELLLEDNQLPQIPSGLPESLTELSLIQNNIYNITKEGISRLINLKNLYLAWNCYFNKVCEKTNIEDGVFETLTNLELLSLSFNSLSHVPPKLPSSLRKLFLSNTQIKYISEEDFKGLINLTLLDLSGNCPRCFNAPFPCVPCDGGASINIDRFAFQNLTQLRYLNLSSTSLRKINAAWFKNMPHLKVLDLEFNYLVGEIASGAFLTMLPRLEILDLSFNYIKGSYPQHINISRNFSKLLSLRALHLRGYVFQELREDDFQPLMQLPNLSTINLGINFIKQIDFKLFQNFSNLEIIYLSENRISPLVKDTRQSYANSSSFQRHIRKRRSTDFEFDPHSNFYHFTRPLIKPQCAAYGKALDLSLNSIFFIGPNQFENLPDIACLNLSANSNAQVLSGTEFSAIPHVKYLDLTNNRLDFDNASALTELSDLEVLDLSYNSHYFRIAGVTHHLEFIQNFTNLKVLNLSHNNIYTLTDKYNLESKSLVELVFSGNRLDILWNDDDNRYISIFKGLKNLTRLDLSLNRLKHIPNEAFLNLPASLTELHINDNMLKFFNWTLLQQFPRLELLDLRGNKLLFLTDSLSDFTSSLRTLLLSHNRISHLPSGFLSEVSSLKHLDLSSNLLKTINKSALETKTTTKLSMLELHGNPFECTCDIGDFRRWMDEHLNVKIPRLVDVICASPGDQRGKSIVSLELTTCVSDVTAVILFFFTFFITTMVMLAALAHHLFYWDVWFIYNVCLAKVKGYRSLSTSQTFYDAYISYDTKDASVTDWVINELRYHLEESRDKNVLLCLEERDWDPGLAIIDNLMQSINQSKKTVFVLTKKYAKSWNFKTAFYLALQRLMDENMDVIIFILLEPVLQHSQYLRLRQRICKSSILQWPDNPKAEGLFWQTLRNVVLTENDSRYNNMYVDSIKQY
Description: A stable HEK293-Blue-hTLR-8 cell line was purchased from InvivoGen (Cat. #: hkb-htlr8, San Diego, California, USA). These cells were originally designed for studying the stimulation of human TLR8 by monitoring the activation of NF-κB. A SEAP (secreted embryonic alkaline phosphatase) reporter gene was placed under the control of the IFN-β minimal promoter fused to five NF-κB and AP-1-binding sites. The SEAP was induced by activating NF-κB and AP-1 via stimulating HEK-Blue hTLR8 cells with TLR8 ligands. Therefore the reporter expression was declined by TLR8 antagonist under the stimulation of a ligand, such as R848, for incubation of 20 hrs. The cell culture supernatant SEAP reporter activity was determined using QUANTI-Blue™ kit (Cat. #: rep-qb1, Invivogen, San Diego, Ca, USA) at a wavelength of 640 nm, a detection medium that turns purple or blue in the presence of alkaline phosphatase.
HEK293-Blue-hTLR8 cells were incubated at a density of 250,000˜450,000 cells/mL in a volume of 170 μL in a 96-well plate in Dulbecco's Modified Eagle's medium (DMEM) containing 4.5 g/L glucose, 50 U/mL penicillin, […], […], 2 mM L-glutamine, 10% (v/v) heat-inactivated fetal bovine serum with addition of 20 μL test compound in a serial dilution in the presence of final DMSO at 1% and 10 μL of 60 uM R848 in above DMEM, perform incubation under 37° C. in a CO2 incubator for 20 hrs. Then 20 μL of the supernatant from each well was incubated with 180 μL Quanti-blue substrate solution at 37° C. for 2 hrs and the absorbance was read at 620˜655 nm using a spectrophotometer. The signaling pathway that TLR8 activation leads to downstream NF-κB activation has been widely accepted, and therefore similar reporter assay was modified for evaluating TLR8 antagonist.

T1 sequence (Q12809 whole entry): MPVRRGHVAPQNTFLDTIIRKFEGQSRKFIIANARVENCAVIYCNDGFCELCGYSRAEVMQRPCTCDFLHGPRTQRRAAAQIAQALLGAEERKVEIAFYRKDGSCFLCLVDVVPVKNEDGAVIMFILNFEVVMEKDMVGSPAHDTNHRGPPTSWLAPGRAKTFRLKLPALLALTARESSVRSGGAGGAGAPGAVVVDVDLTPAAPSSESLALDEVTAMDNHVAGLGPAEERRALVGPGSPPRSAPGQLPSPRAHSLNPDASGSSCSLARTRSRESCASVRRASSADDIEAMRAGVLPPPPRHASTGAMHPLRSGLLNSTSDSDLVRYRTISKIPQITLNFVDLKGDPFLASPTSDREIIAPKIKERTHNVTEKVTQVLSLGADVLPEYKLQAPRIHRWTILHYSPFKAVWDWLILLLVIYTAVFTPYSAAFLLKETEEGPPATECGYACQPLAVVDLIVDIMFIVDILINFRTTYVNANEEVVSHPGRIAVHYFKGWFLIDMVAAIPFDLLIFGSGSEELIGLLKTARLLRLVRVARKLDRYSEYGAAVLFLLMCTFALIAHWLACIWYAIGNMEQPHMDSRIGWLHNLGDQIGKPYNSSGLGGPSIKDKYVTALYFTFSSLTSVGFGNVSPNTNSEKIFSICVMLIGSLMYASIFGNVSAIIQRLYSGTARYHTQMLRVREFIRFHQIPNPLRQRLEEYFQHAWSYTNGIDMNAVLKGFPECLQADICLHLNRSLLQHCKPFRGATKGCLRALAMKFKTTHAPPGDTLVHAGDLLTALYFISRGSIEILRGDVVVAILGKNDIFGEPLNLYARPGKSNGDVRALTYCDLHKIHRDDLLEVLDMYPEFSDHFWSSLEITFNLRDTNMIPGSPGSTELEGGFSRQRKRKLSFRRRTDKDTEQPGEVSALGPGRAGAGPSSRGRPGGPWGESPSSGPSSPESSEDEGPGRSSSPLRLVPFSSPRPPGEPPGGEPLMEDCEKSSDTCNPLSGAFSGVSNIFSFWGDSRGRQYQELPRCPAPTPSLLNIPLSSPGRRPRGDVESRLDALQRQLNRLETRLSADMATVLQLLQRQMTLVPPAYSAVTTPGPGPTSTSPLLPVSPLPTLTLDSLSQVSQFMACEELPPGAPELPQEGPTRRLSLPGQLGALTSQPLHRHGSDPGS

Structure (SMILES)	IC50 (hERG K+ channel) [nM]	IC20 (hERG K+ channel) [nM]	hERG IC20/TLR7 IC50 (hERG K+ channel)	hERG IC20/TLR8 IC50 (hERG K+ channel)	hERG IC20/TLR9 IC50 (hERG K+ channel)	IC50 (human TLR8) [nM]
CO[C@H]1CN(c2ccc([C@@H]3CCN4[C@@H](C3)CN(c3ccc(C#N)c5ncccc35)C[C@H]4C)cn2)C[C@@H]1N [Example 6, 5-[(4R,8R,9aS)-8-[6-[(3S,4S)-3-amino-4-methoxy-pyrrolidin-1-yl]-3-pyridyl]-4-methyl-1,3,4,6,7,8,9,9a-octahydropyrido[1,2-a]pyrazin-2-yl]quinoline-8-carbonitrile]	> 20000	9200	224.4	195.7	105.7	47
C[C@@H]1CN(c2ccc(C#N)c3ncccc23)C[C@@H]2C[C@H](N3CC(c4ccc(N5CCNCC5)cc4)C3)CCN21 [Example 9, 5-[(4R,8R,9aS)-4-methyl-8-[3-(4-piperazin-1-ylphenyl)azetidin-1-yl]-1,3,4,6,7,8,9,9a-octahydropyrido[1,2-a]pyrazin-2-yl]quinoline-8-carbonitrile]	> 20000	> 10000	>370.4	>277.8	>312.5	36
C[C@@H]1CN(c2ccc(C#N)c3ncccc23)C[C@@H]2C[C@@H](Oc3ccc(N4CCNCC4)cn3)CCN21 [Example 11, 5-[(4R,8S,9aS)-4-methyl-8-[(5-piperazin-1-yl-2-pyridyl)oxy]-1,3,4,6,7,8,9,9a-octahydropyrido[1,2-a]pyrazin-2-yl]quinoline-8-carbonitrile]	> 20000	> 10000	>217.4	>666.6	>111.1	15
C[C@@H]1CN(c2ccc(C#N)c3ncccc23)C[C@@H]2C[C@H](Nc3ccc([C@H]4CNCCO4)cc3)CCN21 [Example 20, 5-[(4R,8R,9aS)-4-methyl-8-[4-[(2S)-morpholin-2-yl]anilino]-1,3,4,6,7,8,9,9a-octahydropyrido[1,2-a]pyrazin-2-yl]quinoline-8-carbonitrile]	> 20000	> 10000	>769.2	>200	>200	50
C[C@@H]1CN(c2ccc(C#N)c3ncccc23)C[C@@H]2C[C@H](Nc3ccc(C[C@@H]4CNCCO4)cc3)CCN21 [Example 21, 5-[(4R,8R,9aS)-4-methyl-8-[4-[[(2R)-morpholin-2-yl]methyl]anilino]-1,3,4,6,7,8,9,9a-octahydropyrido[1,2-a]pyrazin-2-yl]quinoline-8-carbonitrile]	> 20000	> 10000	>500	>185.2	>116.3	54
CO[C@H]1CN(c2ccc(O[C@H]3CCN4[C@@H](C3)CN(c3ccc(C#N)c5ncccc35)C[C@H]4C)cn2)C[C@H]1N [Example 28, 5-[(4R,8S,9aS)-8-[[6-[(3R,4S)-3-amino-4-methoxy-pyrrolidin-1-yl]-3-pyridyl]oxy]-4-methyl-1,3,4,6,7,8,9,9a-octahydropyrido[1,2-a]pyrazin-2-yl]quinoline-8-carbonitrile]						7
C[C@@H]1CN(c2ccc(C#N)c3ncccc23)C[C@@H]2C[C@@H](Oc3cncc(N4CCNCC4)c3)CCN21 [Example 29, 5-[(4R,8S,9aS)-4-methyl-8-[(5-piperazin-1-yl-3-pyridyl)oxy]-1,3,4,6,7,8,9,9a-octahydropyrido[1,2-a]pyrazin-2-yl]quinoline-8-carbonitrile]						5
CO[C@@H]1CN(c2ccc(C3CN([C@@H]4CCN5[C@@H](C4)CN(c4ccc(C#N)c6ncccc46)C[C@H]5C)C3)cc2)C[C@H]1N [Example 30, 5-[(4R,8R,9aS)-8-[3-[4-[(3R,4R)-3-amino-4-methoxy-pyrrolidin-1-yl]phenyl]azetidin-1-yl]-4-methyl-1,3,4,6,7,8,9,9a-octahydropyrido[1,2-a]pyrazin-2-yl]quinoline-8-carbonitrile]						69
CO[C@H]1CN(c2ccc(C3CN([C@@H]4CCN5[C@@H](C4)CN(c4ccc(C#N)c6ncccc46)C[C@H]5C)C3)cc2)C[C@H]1N [Example 32, 5-[(4R,8R,9aS)-8-[3-[4-[(3R,4S)-3-amino-4-methoxy-pyrrolidin-1-yl]phenyl]azetidin-1-yl]-4-methyl-1,3,4,6,7,8,9,9a-octahydropyrido[1,2-a]pyrazin-2-yl]quinoline-8-carbonitrile]						29
[2H]c1ccc2c(N3C[C@@H]4C[C@H](Nc5ccc(C[C@H]6CNCCO6)cc5)CCN4[C@H](C)C3)ccc(C#N)c2n1 [Example 34, 5-[(4R,8R,9aS)-4-methyl-8-[4-[[(2S)-morpholin-2-yl]methyl]anilino]-1,3,4,6,7,8,9,9a-octahydropyrido[1,2-a]pyrazin-2-yl]-2-deuterio-quinoline-8-carbonitrile]	> 20000	> 10000	>212.7	>250	>175.4	40
[2H]c1ccc2c(N3C[C@@H]4C[C@@H](N5CC(c6ccc(N7C[C@@H](N)[C@H](OC)C7)cc6)C5)CCN4[C@H](C)C3)ccc(C#N)c2n1 [Example 36]						18
[2H]c1ccc2c(N3C[C@@H]4C[C@H](N5CCN(c6ccncc6)CC5)CCN4[C@H](C)C3)ccc(C#N)c2n1 [Example 37, 5-[(4R,8R,9aS)-4-methyl-8-[4-(4-pyridyl)piperazin-1-yl]-1,3,4,6,7,8,9,9a-octahydropyrido[1,2-a]pyrazin-2-yl]-2-deuterio-quinoline-8-carbonitrile]						116
